Consider three compounds from patent US12221422B2, “Compounds and their use for the treatment of alpha1-antitrypsin deficiency” (CENTESSA PHARMACEUTICALS (UK) LIMITED, priority 2018, dated 2025).

One data set deals with T1, human Siiyama A1AT (Homo sapiens, UniProt P01009, S77F).
T1 construct: expressed in transfected cells; host or cells: HEK-Siiyama (HEK-EBNA cells containing the Siiyama A1AT plasmid)
Nature of the data set: A1AT cell secretion assay using HEK-Siiyama cells (ELISA). It counts as cell-based. The note with it: 10 μM, 48 h, positive control. The procedure:
HEK-Siiyama cells, a human embryonic kidney cell line stably transfected with the human Siiyama A1AT gene, were plated into 96 well plates (3.0×10^5 cells/ml with 200 μl of media/well) overnight at 37° C. in a humidified atmosphere containing 5% CO2. Following incubation cells were washed with 200 μl serum-free media three times and media was replaced with serum-free media containing either vehicle, 10 μM suberanilohydroxamic acid (SAHA) or a compound of the invention (at 1 or 10 μM) in replicates of eight for 48 h in a 37° C. incubator in a final volume of 200 μl. […]
(§1) Briefly, a 96 well plate was coated with human A1AT capture antibody overnight at room temperature (1:180 dilution from stock, 100 μl final volume/well). […] After which, 50 μl stop solution (2M H2SO4) was added and optical density (OD) of each well was read at 450 nm with 570 nm blank subtracted from each well using a microplate reader. A 4 parameter logistic curve was constructed using GraphPad Prism 7 and A1AT concentrations were determined in each sample by interpolation from a standard curve and multiplying by the appropriate dilution factor.
The amount of human A1AT secreted from transfected HEK-EBNA cells into the media was measured by ELISA. […]
On the technique in general: ELISA stands for enzyme-linked immunosorbent assay.

The target of another data set is T2, human M A1AT (Homo sapiens, UniProt P01009).
T2 construct: expressed in transfected cells; host or cells: HEK-M (HEK-EBNA cells containing the M A1AT plasmid)
T2 sequence (P01009 25-418): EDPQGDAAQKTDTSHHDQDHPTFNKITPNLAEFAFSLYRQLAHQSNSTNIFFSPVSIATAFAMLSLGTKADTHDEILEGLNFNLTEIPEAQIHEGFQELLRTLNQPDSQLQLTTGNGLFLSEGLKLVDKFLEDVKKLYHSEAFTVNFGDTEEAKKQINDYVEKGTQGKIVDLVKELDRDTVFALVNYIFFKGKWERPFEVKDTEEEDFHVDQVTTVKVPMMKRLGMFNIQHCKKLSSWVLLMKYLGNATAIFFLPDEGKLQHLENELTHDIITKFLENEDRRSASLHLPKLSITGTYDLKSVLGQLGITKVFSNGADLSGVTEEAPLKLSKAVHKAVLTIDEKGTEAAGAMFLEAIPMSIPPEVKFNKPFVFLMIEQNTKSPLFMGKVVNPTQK
Nature of the data set: A1AT cell secretion assay using HEK-M cells (ELISA). In kind it is cell-based. The following applies: 10 μM, 48 h. The procedure:
HEK-M cells, a human embryonic kidney cell line stably transfected with the human M A1AT gene, were plated into 96 well plates (3.0×10^5 cells/ml with 200 μl of media/well) overnight at 37° C. in a humidified atmosphere containing 5% CO2. Following incubation cells were washed with 200 μl serum-free media three times and media was replaced with serum-free media containing either vehicle, 10 μM suberanilohydroxamic acid (SAHA) or a compound of the invention (at 10 μM) in replicates of six for 48 h in a 37° C. incubator in a final volume of 200 μl. […]
as §1
(§2) The amount of A1AT secreted from transfected HEK-EBNA cells into the media was measured by ELISA. […]

For another data set, the target named is human Z A1AT (Homo sapiens, UniProt P01009, E366K). Nature of the data set: A1AT cell secretion assay using HEK-Z cells (ELISA). In kind it is cell-based. Details: expressed in transfected cells; host or cells: HEK-Z (HEK-EBNA cells containing the Z A1AT plasmid). The following applies: HEK-Z cells, 10, 33, 100 and 333 nM, 48 h, cell supernatant. As to the method: HEK-Z cells, a human embryonic kidney cell line stably transfected with the human Z A1AT gene, were plated into 96 well plates (3.0×10^5 cells/ml with 200 μl of media/well) overnight at 37° C. in a humidified atmosphere containing 5% CO2. Following incubation cells were washed with 200 μl serum-free media three times and media was replaced with treatments in quadruplicate using serum-free media containing either vehicle, 10 μM suberanilohydroxamic acid (SAHA), N,N-dimethyl-4-((6-oxopyrimidin-1(6H)-yl)methyl)benzamide (at concentrations of 10, 33, 100 and 333 nM), N,N-(bis-methyl-d3)-4-((6-oxopyrimidin-1(6H)-yl)methyl)benzamide (at concentrations of 10, 33, 100 and 333 nM) or N-methyl-4-((6-oxopyrimidin-1(6H)-yl)methyl)benzamide (at concentrations of 10, 33, 100 and 333 nM) for 48 h in a 37° C. incubator in a final volume of 200 μl. At the end of the incubation step the supernatants were removed from the wells, centrifuged at 1000×g at 4° C. for 10 min and were assayed for human A1AT levels by ELISA (Human Serpin A1/α1-antitrypsin duo set ELISA, R& D Systems, DY1268) per manufacturer's instructions.
human Z A1AT, sequence (P01009 25-418 E366K): as the sequence (P01009 25-418) above, with E342K counted along it
as §1, with “volume/well). The capture antibody was then removed and wells washed three times with 300 μl wash buffer (0.05% Tween 20 in PBS) and then 200 μl reagent diluent ([…]) was incubated in each well for 1 h at room temperature.” for “volume/well).”
as §2

A short description of a further data set: Pharmacokinetics in rats. It counts as in vivo. The note with it: rat, whole blood, Sprague Dawley rats, iv 2 mg/kg or oral 10 mg/kg; for half-life: read-out: Half-life in blood (t1/2); for clearance: read-out: Observed clearance; for Vd: read-out: Volume of distribution (Vz). As to the method: Compounds were administered to Sprague Dawley rats intravenously (2 mg/kg) or orally (10 mg/kg) by gavage. Whole blood diluted with water was prepared from these dosed animals over a time course up to 24 hours post dose to allow blood concentrations of drug to be measured by UPLC-MS/MS.

SMILES strings stand for the structures.

T1 sequence (P01009 25-418 S77F): as the sequence (P01009 25-418) above, with S53F counted along it

In the case of `O=C(CCCCCCC(=O)Nc1ccccc1)NO` [SAHA, suberanilohydroxamic acid, reference compound], at human Siiyama A1AT, the “secretion of Siiyama A1AT as measured by ELISA” value is recorded as “stimulates an increase in Siiyama A1AT secretion”. Besides, at human M A1AT, the “secretion of M A1AT as measured by ELISA” value is recorded as “stimulates an increase in M A1AT secretion”.
As to `[2H]C([2H])([2H])N(C(=O)c1ccc(Cn2cnccc2=O)cc1)C([2H])([2H])[2H]` [N,N-(bis-methyl-d3)-4-((6-oxopyrimidin-1(6H)-yl)methyl)benzamide], the “secretion of Z A1AT as measured by ELISA” value on human Z A1AT was “stimulates secretion of Z A1AT in a dose dependent manner”. In addition, in “Pharmacokinetics in rats”, the half-life came out at 52 min, the clearance is 10.6 mL/min/kg and the Vd turned out to be 0.72 L/kg.
`CNC(=O)c1ccc(Cn2cnccc2=O)cc1` [N-methyl-4-((6-oxopyrimidin-1(6H)-yl)methyl)benzamide]: the “secretion of Z A1AT as measured by ELISA” value on human Z A1AT is listed as “stimulates secretion of Z A1AT in a dose dependent manner”. Also, in the data set “Pharmacokinetics in rats”, the half-life amounted to 63 min, the clearance was 10.6 mL/min/kg and the Vd was determined as 1 L/kg.
